A word on the IC50: it is the midpoint of a concentration-inhibition curve. For orientation: Ki means the equilibrium dissociation constant of an inhibitor or competing ligand from its target.

Molecules are shown by their SMILES. The source made the active and inactive calls. No cut-off for these calls is given here.

Assay [1] relates to HCT-116. As to the kind of experiment: Antiproliferative activity against human HCT116 cells expressing Kinesin-like protein KIF11 D130V mutant after 72 hrs by Cell titer Glo assay. The assay is classed as functional, cell-based. The note with it: HCT-116, 72 h.
The subject of assay [2] is HCT-116. As to the kind of experiment: Antiproliferative activity against 3x IC95 biaryl selected human HCT116 cells expressing Kinesin-like protein KIF11 D130V mutant after 72 hrs by Cell titer Glo assay. The class given is functional, cell-based. The note with it: HCT-116, 72 h. (ATP-based viability assays read luminescence as a measure of living cells.)
The subject of assay [3] is HCT-116. The experiment in a line: Antiproliferative activity against 3x IC95 biaryl selected drug-resistant against human HCT116 cells after 72 hrs by Cell titer Glo assay. To be noted: HCT-116, 72 h. The assay is classed as functional, cell-based.
In assay [4] the test system is HCT-116. The experiment in a line: Antiproliferative activity against IC95 biaryl selected human HCT116 cells expressing Kinesin-like protein KIF11 D130V mutant after 72 hrs by Cell titer Glo assay. The assay is classed as functional, cell-based. The note with it: HCT-116, 72 h.
For assay [5], the system named is HCT-116. The experiment in a line: Antiproliferative activity against human HCT116 cells after 72 hrs by Cell titer Glo assay. The assay is classed as functional, cell-based. The note with it: HCT-116, 72 h.
Assay [6] deals with HCT-116. As to the kind of experiment: Antiproliferative activity against IC50 biaryl selected human HCT116 cells expressing Kinesin-like protein KIF11 D130V mutant after 72 hrs by Cell titer Glo assay. The assay is classed as functional, cell-based. To be noted: HCT-116, 72 h.
Assay [7] concerns HCT-116. As to the kind of experiment: Antiproliferative activity against IC50 biaryl selected drug-resistant against human HCT116 cells after 72 hrs by Cell titer Glo assay. The assay is classed as functional, cell-based. To be noted: HCT-116, 72 h.
For assay [8], the system named is HCT-116. As to the kind of experiment: Antiproliferative activity against IC95 biaryl selected drug-resistant against human HCT116 cells after 72 hrs by Cell titer Glo assay. The class given is functional, cell-based. The note with it: HCT-116, 72 h.
Assay [9] addresses T1, Kinesin-like protein KIF11 (Homo sapiens, UniProt P52732).
T1 sequence (P52732 whole entry): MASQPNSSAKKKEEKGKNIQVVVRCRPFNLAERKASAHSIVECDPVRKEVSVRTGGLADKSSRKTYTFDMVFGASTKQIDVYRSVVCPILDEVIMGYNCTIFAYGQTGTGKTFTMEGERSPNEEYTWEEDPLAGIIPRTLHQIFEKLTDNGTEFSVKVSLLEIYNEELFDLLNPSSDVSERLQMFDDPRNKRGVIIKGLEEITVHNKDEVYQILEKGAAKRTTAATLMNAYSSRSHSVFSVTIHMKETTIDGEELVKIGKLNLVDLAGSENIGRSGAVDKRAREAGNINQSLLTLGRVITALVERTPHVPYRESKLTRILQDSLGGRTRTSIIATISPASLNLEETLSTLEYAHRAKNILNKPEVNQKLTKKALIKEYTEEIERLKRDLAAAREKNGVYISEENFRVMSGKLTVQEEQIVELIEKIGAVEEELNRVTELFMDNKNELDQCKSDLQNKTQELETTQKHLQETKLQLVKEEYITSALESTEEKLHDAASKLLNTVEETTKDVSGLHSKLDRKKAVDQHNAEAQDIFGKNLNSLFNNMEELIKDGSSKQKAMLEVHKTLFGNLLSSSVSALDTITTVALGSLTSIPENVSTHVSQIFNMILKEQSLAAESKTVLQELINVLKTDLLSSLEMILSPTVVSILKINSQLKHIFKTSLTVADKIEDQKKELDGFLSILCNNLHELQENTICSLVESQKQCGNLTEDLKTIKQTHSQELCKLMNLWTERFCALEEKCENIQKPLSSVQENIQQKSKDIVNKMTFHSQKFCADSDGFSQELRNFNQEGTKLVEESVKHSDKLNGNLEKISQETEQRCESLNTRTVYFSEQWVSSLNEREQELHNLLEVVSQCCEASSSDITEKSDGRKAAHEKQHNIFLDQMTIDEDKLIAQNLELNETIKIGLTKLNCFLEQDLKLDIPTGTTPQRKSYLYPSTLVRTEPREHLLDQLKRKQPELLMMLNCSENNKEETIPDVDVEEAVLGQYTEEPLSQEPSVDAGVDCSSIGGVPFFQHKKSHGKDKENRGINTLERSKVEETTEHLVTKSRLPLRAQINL
As to the kind of experiment: Inhibition of human wild type Eg5 using varying ATP levels in presence of saturating levels of microtubule by Lineweaver-Burke plot.

Assay [10] deals with T2, Kinesin-like protein KIF11 (Homo sapiens) (UniProt P52732).
T2 sequence (whole entry): T1 sequence (P52732 whole entry)
The experiment in a line: Binding affinity to human KSP assessed as photoaffinity labeling at Leu295 residue at 240 uM by photo affinity labeling study.

On to `Cc1ccc(C(=O)N(CCCN)[C@@H](c2nc3cc(Cl)ccc3c(=O)n2Cc2ccccc2)C(C)C)cc1F`, for which the half-inhibitory concentration (IC50) with HCT-116 [1] was found to be 903 nM; in the assay on HCT-116 [2], 87.3 nM; in the assay on HCT-116 [3], 22 nM; in the assay with HCT-116 [4], 675 nM; in the assay on HCT-116 [5], 0.46 nM; in the assay on HCT-116 [6], 1190 nM. The 50% inhibitory concentration (IC50) in the assay with HCT-116 [7] turned out to be 0.72 nM; in the assay on HCT-116 [8], 1 nM.

For the compound `CC(=O)O[C@@]12CO[C@@H]1C[C@H](O)[C@@]1(C)C(=O)[C@H](O)C3=C(C)[C@@H](OC(=O)[C@H](O)[C@@H](NC(=O)OC(C)(C)C)c4ccccc4)C[C@@](O)([C@@H](OC(=O)c4ccccc4)[C@H]21)C3(C)C` [DOCETAXEL], the half-inhibitory concentration (IC50) in the assay with HCT-116 [1] was found to be 0.23 nM; in the assay on HCT-116 [2], 0.35 nM; with HCT-116 [3], 8.7 nM; in the assay on HCT-116 [4] it was 0.59 nM; in the assay on HCT-116 [5], 0.3 nM; in the assay on HCT-116 [6], 0.2 nM. Further, the IC50 in the assay with HCT-116 [7] was 0.31 nM; with HCT-116 [8], 0.18 nM.

As to `NC(=O)Nc1ccc(-c2ccc(C3(C(F)(F)F)N=N3)cc2)cc1`, the Ki in assay [9] is 330 nM. The outcome in assay [10] was Active.

These data come from ChEMBL document CHEMBL1221208, “ATP-competitive inhibitors of the mitotic kinesin KSP that function via an allosteric mechanism” (Nat Chem Biol, 2007).
